Reference: patent US20050019258A1, “Compound testing method” (priority 2003, published 2005)
Where two headings read alike, the source gives them in different places.

Assays:
guinea-pig bladder [1] = assay: Ice-water test (IWT) in anaesthetised guinea-pig bladder, effect of RTX treatment; type: in vivo
Protocol: (§1) Anaesthesia was induced in female Dunkin-Hartley guinea-pigs (326-416 g) by exposure to 4% halothane in oxygen. A surgical level of anaesthesia was then obtained by administration of 1.2 g/kg i.p. urethane followed by 40 mg/kg α-chloralose via a catheterised jugular vein. Supplementary doses of urethane (0.05 g/kg i.v.) were given if required. Rectal temperature was maintained between 36.5 and 37° C. via a Harvard homeothermic blanket control unit and additional heating lamp. […] The trachea was cannulated and the animals artificially respired using an Ugo-Basile rodent ventilator. A carotid arterial blood sample (0.3 ml) was analysed for blood gases using a GEM Premier 3000 analyser and the ventilation volume adjusted, with air intake enriched with O2 if necessary, to set the level of blood PO2>70 mmHg, PCO2<40 mmHg and pH between 7.36 and 7.46.
(§2) The urinary bladder was exposed via a midline laparotomy and a double lumen catheter inserted into the lumen through an incision in the dome. The catheter was tied in place below the flanged tip of the outer tubing, followed by closure of the abdominal incision. […] The amplified EUS electromyogram (EUS EMG), the integrated EUS EMG and bladder pressure signals were recorded using Spike2 software (Cambridge Electronic Design). […]

[2] = tested on: patients with detrusor hyperreflexia; details: 13 patients positive at baseline, cited from earlier work
guinea-pig bladder [3] = assay: Ice-water test (IWT) in anaesthetised guinea-pig bladder, effect of menthol; type: in vivo
Protocol: as §1, §2

bladder cooling reflex [4] = details: 0.5 mM menthol in patients; cited from earlier work
bladder cooling reflex [5] = details: 0.6 mM menthol in cats; cited from earlier work

Compound	desensitisation of the 3° C. induced reduction in TV (guinea-pig bladder [1]; 500 nM RTX infused into bladder)	difference of TV to 3° C. vs TV for 38° C. control response before RTX (guinea-pig bladder [1]; 500 nM RTX, 100 min post RTX infusion, 95% C.I. −0.51, 0.20, p>0.05)	additional patients in whom IWT became negative ([2]; at 14 days, 50 or 100 nM RTX)	number of cases with negative IWT ([2]; at 90 days post treatment, 50 or 100 nM RTX) [cases]	number of patients in whom IWT became negative ([2]; immediately after instillation of 50 or 100 nM RTX) [patients]	threshold volume (TV) for micturition at 3° C. following menthol treatment (guinea-pig bladder [3]; 0.6 mM menthol infused into bladder, 3° C. saline infusion, TV before menthol 1.90 ml, n=4) [mL]	difference in TV at 3° C. after menthol vs before menthol (guinea-pig bladder [3]; 0.6 mM menthol, 95% C.I. −1.33, −0.57, p<0.001)	effect on bladder cooling reflex (shift of threshold temperature towards higher temperatures) (bladder cooling reflex [4])	effect on bladder cooling reflex (shift of threshold temperature towards higher temperatures) (bladder cooling reflex [5])
C=C(C)[C@]12C[C@@H](C)[C@@]34O[C@](Cc5ccccc5)(O[C@@H]1[C@@H]3C=C(COC(=O)Cc1ccc(O)c(OC)c1)C[C@]1(O)C(=O)C(C)=C[C@@H]41)O2 [RTX, resiniferatoxin]	Desensitisation	−0.16	2	8	4	–	–	–	–
CC1CCC(C(C)C)C(O)C1 (stereo not drawn) [menthol]	–	–	–	–	–	0.95	−0.95	Potentiation of the bladder cooling reflex	Potentiation of the bladder cooling reflex
